Where “and” joins values, the source holds several entries; their conditions need not be identical. Identical values can stand only once. Residues, ends and D or L forms follow the SMILES beside them. *: point of attachment. Cbz = O=C(OCc1ccccc1)*; OtBu = CC(C)(C)O*
Legend:
[1] = test system: C57BL/6 mice; test: Capsaicin-induced mechanical hypersensitivity (von Frey); assay type: in vivo, mouse; design: LVF Mean / HVF Mean / MECHANICAL LVF / MECHANICAL HVF: unit not given here; details: Cap + Bup 7 mg/mL
Excerpt: (§1) FGF13 is a neuronal gene ubiquitously transcribed in DRG neuronal subtypes ([43]–[46]). To investigate neuronal subtype enrichment of the FGF13 transcript, we examined a gene panel including FGF13, SCN9A, and several marker genes in mouse single-cell transcriptomic data (Supplemental Figure 10) ([43]–[46]). […] Critically, putative silent nociceptors marked by somatostatin (SST), and the nicotinic cholinergic receptor α-3 subunit (CHRNA3) contribute to development of inflammatory mechanical hyperalgesia ([47]). […] We next determined if PW164 modulation of the FGF13/Nav1.7 complex could suppress nociceptive behaviors in WT mice. We tested whether intraplantar (i.pl.) injection (5 μL) of PW164 altered hind paw withdrawal in response to low or high intensity von Frey filament (LVF or HVF, respectively) mechanical stimulation (Figure 3A). […] Next, we evaluated PW164’s effect on mechanical and thermal hindpaw sensitivity in capsaicin-induced nociceptive hypersensitivity models. […] Next, we performed in vivo target validation in WT mice that received an intrathecal (i.t.) injection in L5 of AAV2-shFGF13 (6 μL, viral titers 1 × 10^12 vector genomes (vg)/mL); a control group received an equal number of AAV2-shCTRL particles (Figure 3C).
(§2) Experiments were performed on 6- to 12-week-old male C57BL/6 mice (The Jackson Laboratory, Bar Harbor, ME) housed in the AAALAC-accredited facility at the University of Texas Medical Branch. Mice were group-housed with up to 5 mice per cage on a 12-to-12-hour light–dark cycle and had access to water and food ad libitum. All protocols were approved by the Institutional Animal Care and Use Committee (IACUC) at the University of Texas Medical Branch and in accordance with the National Institutes of Health (NIH) guidelines.
(§3) PW164 and ZL192 were dissolved in DMSO and saline in a ratio of 1:10. 0.1% capsaicin (10% ethanol, 10% Tween-20 in saline; Sigma-Aldrich). All the compounds were injected at the center of the hind paw. The control group received a DMSO-saline mixture. […]
Bupivacaine was prepared from a 1:2 dilution with sterile 0.9% saline and locally injected in the center of the paw at 7 mg/ml.
(§4) AAV2 viral particles packaged by the University of North Carolina Gene Therapy Core Facility (viral titer ranging […]
Before intrathecal injections in the lumbar region, mice were maintained in an anesthetizing box with 2% isoflurane to induce unconsciousness. Six microliters of viral vector were gently injected into the CSF through a 30-gauge needle with a Hamilton syringe in the lumbar area between vertebrae L4 and L5 by gently gripping the iliac crest of the mouse and inserting the needle with an angle of 45°. The correct procedure was confirmed by the mouse’s tail reflexiv e flick.
(§5) Assessment of mechanical sensitivity
Mechanical sensitivity was assessed using von Frey filaments (VFF 0.1g and 1.0 g force) in mice that were either naïve or received intraplantar (i.p.) injection of capsaicin. VFFs were applied at the injection site (capsaicin or […]

[2] = test system: C57BL/6 mice; test: Mechanical sensitivity (von Frey, LVF/HVF) after intraplantar injection, mice without capsaicin; assay type: in vivo, mouse; design: key to LVF Mean / HVF Mean: % withdrawals from 10 consecutive von Frey stimulations; details: Bup 7 mg/mL, without capsaicin
Description: as §2, §3, §5
Mechanical sensitivity was assessed using von Frey filaments (VFF 0.1g and 1.0 g force) in mice that were either naïve or received intraplantar (i.p.) injection of capsaicin. VFFs were applied at the injection site (capsaicin or drug unilateral intraderma l injection at the center of the hind paw using a 30 -G needle). VFF of 1.0 g force, which evokes a 40–60% withdrawal response in the naïve condition, was used to detect hyperalgesia, and VFF of 0.1 g […]
mechanical sensitivity was expressed as % withdrawals from 10 consecutive stimulations. […]

[3] = test system: FGF13 and Nav1.7 colocalization in hIPSC-derived sensory neurons; test: Immunocytochemistry, FGF13 and Nav1.7 colocalization in RealDRG; assay type: cell-based, human; details: Capsaicin, N 39
Description: After treatment, coverslips containing hIPSC-derived sensory neurons were fixed with 4% PFA/4% sucrose for 15 minutes, permeabilized for 5 minutes using 0.1% Triton X-100 in PBS and blocked with 10% Normal Goat Serum (ThermoFisher Scientific) for 30 minutes. Cells were stained using primary antibodies ms IgG1 Nav1.7 […]
Tubulin (Abcam, catalog # ab18207; 1:2000) overnight at 4∘C in 3% BSA. Isotype specific secondary antibodies ms IgG1 Alexa 568 (Life Technologies, catalog # A-21124; 1:200), ms IgG2a Alexa 647 (Life Technologies, […]
applied for 2 hours. After washing, cell membranes were labeled using CellBrite Cytoplasmic Membrane Dye (Biotium) according to manufacturer directions. After final washing, coverslips were mounted using ProLong Gold Antifade Mountant (ThermoFisher). hIPSC-derived sensory neurons were fixed at day 14 in buffered formalin (10 wt%/vol%, Fisher Scientific 23-305-510) for 10 minutes, permeabilized in DPBS plus Triton X-100 (0.2 vol%/vol%, MilliporeSigma, T8787-100ML), blocked in DPBS plus bovine serum albumin (1 wt%/vol%, MilliporeSigma A3059-100G) and Tween-20 (0.1 vol% MilliporeSigma P1379) for 2 hours, and incubated with primary antibodies overnight. Cultures were washed twice with blocking solution and incubated 1 hour with secondary antibodies. 4′,6-diamidino-2-phenylindole dilactate (DAPI, Thermo Fisher D3571) was added for 10 minutes before washing three times in DPBS. Antibodies used include: TUJ1 (1:250, MilliporeSigma MAB1637), […]
and Alexa Fluor 555 Donkey anti-Rabbit (1:500, Thermo Fisher Scientific A-31572). Negative controls included

[4] = test system: C57BL/6 mice; test: Capsaicin-induced thermal hypersensitivity (Hargreaves); assay type: in vivo, mouse; details: Figure 3 B lower block (Vehicle vs PW 164), individual animals 1-20
Excerpt: as §1, §2, §3, §4
Before intrathecal injections in the lumbar region, mice were maintained in an anesthetizing box with 2% isoflurane to induce unconsciousness. Six microliters of viral vector were gently injected into the CSF through a 30-gauge needle with a Hamilton syringe in the lumbar area between vertebrae L4 and L5 by gently gripping the iliac crest of the mouse and inserting the needle with an angle of 45°. The correct procedure was confirmed by the mouse’s tail reflexiv e flick. […]

[5] = molecular target: T1, FGF13 (protein used in surface plasmon resonance) (UniProt Q92913-2 1-192); test: SPR; cell-free; FGF13 with Nav1.7 CTD, no compound; details: both partners purified
T1 construct: Fibroblast growth factor 13; also called fibroblast growth factor 13
T1 sequence (looked up): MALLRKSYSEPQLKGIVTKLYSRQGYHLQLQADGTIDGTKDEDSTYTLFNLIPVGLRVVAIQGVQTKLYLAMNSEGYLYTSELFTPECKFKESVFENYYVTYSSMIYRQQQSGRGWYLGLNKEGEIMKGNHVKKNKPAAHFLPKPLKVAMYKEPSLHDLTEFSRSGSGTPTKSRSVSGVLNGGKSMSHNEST

`CCCCN1CCCCC1C(=O)Nc1c(C)cccc1C` (racemic) [Bup] was tested, and the “HVF Mean” value ([1]; Time (h) 0) was 52, the “LVF Mean” value ([1]; Time (h) 0) was 0 and the “HVF Mean” value ([1]; Time (h) 0.5) was 100. For the same molecule, the “LVF Mean” value ([1]; Time (h) 0.5) was 66, the “HVF Mean” value ([1]; Time (h) 0.75) was 6 and the “LVF Mean” value ([1]; Time (h) 0.75) was 0. For the same molecule, the “HVF Mean” value ([1]; Time (h) 1) was 58, the “LVF Mean” value ([1]; Time (h) 1) was 0 and the “HVF Mean” value ([1]; Time (h) 1.5) was 98. The “LVF Mean” value ([1]; Time (h) 1.5) was 22, the “HVF Mean” value ([1]; Time (h) 2) was 100 and the “LVF Mean” value ([1]; Time (h) 2) was 52. For the same molecule, the “HVF Mean” value ([2]; Time (h) 0) was 52, the “HVF Mean” value ([2]; Time (h) 0.5) was 8 and the “HVF Mean” value ([2]; Time (h) 1) was 58. The “HVF Mean” value ([2]; Time (h) 1.5) was 54 and the “HVF Mean” value ([2]; Time (h) 2) was 54.

With `COc1cc(CNC(=O)CCCC/C=C/C(C)C)ccc1O` [Capsaicin] the “Figure S6C, Mean” value ([3]; Distance 7.1166 microns) was 236.646, the “Figure S6C, Mean” value ([3]; Distance 7.2484 microns) was 412.139 and the “Figure S6C, Mean” value ([3]; Distance 7.3801 microns) was 777.284. The “Figure S6C, Mean” value ([3]; Distance 7.5119 microns) was 1294.71, the “Figure S6C, Mean” value ([3]; Distance 7.6437 microns) was 1747.86 and the “Figure S6C, Mean” value ([3]; Distance 7.7755 microns) was 1996.82. For the same molecule, the “Figure S6C, Mean” value ([3]; Distance 7.9073 microns) was 2041.85, the “Figure S6C, Mean” value ([3]; Distance 8.0391 microns) was 2010.31 and the “Figure S6C, Mean” value ([3]; Distance 8.1709 microns) was 1934.86. For the same molecule, the “Figure S6C, Mean” value ([3]; Distance 8.3027 microns) was 1848.17, the “Figure S6C, Mean” value ([3]; Distance 8.4344 microns) was 1793.9 and the “Figure S6C, Mean” value ([3]; Distance 8.5662 microns) was 1740.61. The “Figure S6C, Mean” value ([3]; Distance 8.698 microns) was 1651.29, the “Figure S6C, Mean” value ([3]; Distance 8.8298 microns) was 1564.27 and the “Figure S6C, Mean” value ([3]; Distance 8.9616 microns) was 1524.73. The “Figure S6C, Mean” value ([3]; Distance 9.0934 microns) was 1474.75.

In the case of `COC(=O)[C@@H](NC(=O)[C@H](CCC(=O)OC(C)(C)C)NC(=O)[C@H](CC(C)C)NC(=O)[C@@H]1CCCN1C(=O)OCc1ccccc1)C(C)C` [PW 164] (Cbz-PLE(OtBu)V-OMe), the “Paw withdrawal latency” value ([4]; Time (h) 0.5) is reported as 6.8 s and 5.5 s (2×) and 2.93 s and 6.4 s and 5.33 s and 6.3 s and 4.8 s and 4.23 s and 4.87 s and 3.47 s and 5.6 s and 4.1 s and 4.4 s and 2.87 s and 8.3 s and 5.93 s and 5 s and 4.2 s and 6.1 s, the “Paw withdrawal latency” value ([4]; Time (h) 1) is reported as 11.43 s and 10.43 s and 13.57 s and 12.1 s and 12.5 s and 12.33 s and 11.6 s and 11.33 s and 13.2 s and 15.4 s and 16 s and 12.63 s and 16.3 s and 11.83 s and 17.37 s and 20 s and 12.8 s and 12.17 s and 18.37 s and 16.47 s and the “Paw withdrawal latency” value ([4]; Time (h) 1.5) is reported as 12.6 s and 12.77 s and 10.5 s and 11.3 s and 13.4 s and 7.9 s and 8 s and 9.27 s and 11.73 s and 9.97 s and 16.43 s and 14.37 s and 15.37 s and 12.23 s and 13.13 s and 18.63 s and 15.2 s and 17.17 s and 10.23 s and 9.23 s. For the same molecule, the “Paw withdrawal latency” value ([4]; Time (h) 2.5) was 12.63 s and 12.73 s and 10.73 s and 10.97 s and 13.83 s and 8.87 s and 8.63 s and 9.6 s and 15.4 s and 19.5667 s and 15.7667 s and 13.6 s and 14.9333 s (2×) and 14.7333 s and 11.4667 s and 11.1333 s and 10.5667 s and 15.1 s and 13.2 s and the “Paw withdrawal latency” value ([4]; Time (h) BN (baseline)) was 12.77 s and 12 s and 12.53 s and 10.8 s and 11.1 s and 12.43 s and 10.77 s (2×) and 12.33 s (2×) and 12.47 s (2×) and 14.53 s and 12.9 s and 11.27 s (2×) and 13.5 s and 11.07 s and 12.6 s and 10.67 s.

B1: Nav1.7 CTD (fragment used in surface plasmon resonance) (domain or fragment)
chain: QEDVSATVIQRAYRRYRLRQNVK
modifications: synthetic peptide from supplementary SPR methods (stated as residues 1876-1899, 23 aa); used unconjugated as analyte over immobilized FGF13, and biotinylated (biotin position not stated) when …
Molecule B1 has a Kd [5] of 75 ± 3 nM.

Source: publication PMC12259270, “Sensory neuron–expressed FGF13 controls nociceptive signaling in diabetic neuropathy models” (The Journal of Clinical Investigation, 2025)
